Measured values as given in patent US11337990B2, “Human milk oligosaccharides to promote growth of beneficial bacteria” (ABBOTT LABORATORIES, priority 2010, dated 2022).
Entries after “also recorded” stand apart in the source; their conditions may differ.

Columns and labels:
HT-29 cells = test: HT-29 cell proliferation, BrdU assay; format: cell-based, human
Description: In a first experiment, HT-29 cells, which model the immature epithelial cells of the small intestine, are incubated in a humidified atmosphere of 5% carbon dioxide at 37 C in the presence of LNnT at concentrations of 0 mg/L (“0”), 100 mg/L (“100”), 200 mg/L (“200”), and 400 mg/L (“400”) for either 48 hours or 72 hours. The culture medium utilized is Dulbecco's Modified Eagle Medium (Life Technologies, Foster City Calif.) supplemented with 10% fetal calf serum and 2 mM glutamine. The control consists of a combination of 91.5 mg lactose and 62.4 mg galactosamine (“LG”) per Liter of the Dulbecco's Modified Eagle Medium set forth above. The impact of the LNnT at various levels and the control on HT-29 cell proliferation is measured using a conventional BrdU assay, which measures the number of cells that have recently synthesized DNA.
In a first experiment, HT-29 cells, which model the immature epithelial cells of the small intestine, are incubated in a humidified atmosphere of 5% carbon dioxide at 37° C. in the presence of LNnT or 2′FL at concentrations of 0 mg/L (“0”), 20 mg/L (“20”), 200 mg/L (“200”), and 2000 mg/L (“2000”) or in the presence of 6′SL at concentrations of 0 mg/mL (“0”), 40 mg/mL (“40”), 400 mg/mL (“400”), and 4000 mg/mL (“4000”) for 72 hours. The culture medium utilized is Dulbecco's Modified Eagle Medium (Life Technologies, Foster City Calif.) supplemented with 10% fetal calf serum and 2 mM glutamine. The controls (“energy”) consist of 91.5 mg lactose and 64.2 mg N-acetyllactosamine/L for LNnT; 133 mg lactose and 67 mg fucose/L for 2′FL; and 195 mg lactose and 205 mg/L sialic acid for 6′SL. The impact of the LNnT, 2′FL, and 6′SL at various levels and the controls on HT-29 cell proliferation is measured using a conventional BrdU assay, which measures the number of cells that have recently synthesized DNA. […] Additionally, the impact of LNnT, 2′FL, and 6′SL at various levels and the controls on the alkaline phosphatase activity per milligram of protein for HT-29 cells, which is an indicator of cell differentiation, is measured.

Caco-2 cells = test: Transepithelial resistance (barrier function), Caco-2, Ussing chambers; format: cell-based, human; details: Example 48, more mature Caco-2 cells
Excerpt: FIGS. 46-48 illustrate the effect of LNnT, 2′FL, and 6′SL on cell resistance (transepithelial resistance), which is a marker for epithelial barrier function, wherein a higher resistance is associated with a higher barrier function. Epithelial cell resistance or barrier function is a measure of differentiated epithelial cell function. Specifically, as the cells mature, tighter junctions between the cells are formed resulting in a stronger epithelial cell barrier. This barrier prevents the movement of large molecules, bacteria, or viruses from one side of the barrier to the other. […] Transepithelial resistance is measured using Transwell Snapwell inserts containing the desired cell culture were transferred to modified Ussing chambers and bathed in modified Kreb's solution at 37 C with 95% oxygen and 5% carbon dioxide. Transepithelial resistance was measured as the passive transport of ions across the monolayers.

infant fecal bacteria = test: In vitro substrate fermentation model with infant feces (pH, SCFA, lactate); format: cell-based, human infant
B. infantis ATCC 15697 = test: Bacterial growth assay (OD600); format: cell-based, Bifidobacterium infantis; details: 1% carbohydrate in sMRS+cysteine
Description: (§1) Coy Laboratory Products, Grass Lake, Mich.). Subsequently, the cultures are passed twice on a semi-synthetic MRS medium ([…] which is supplemented with 1% (w/v) filter-sterilized glucose as the sole carbohydrate source. […] For bifidobacteria strains, the same procedure is followed except all media are supplemented with 0.5 g/l L-cysteine/HCl. [table] After the 2nd pass in sMRS+glucose+cysteine, the cultures are washed once with 10 mL of sterile sMRS+cysteine (no carbohydrate), resuspended in 10 ml of sterile sMRS+cysteine (no carbohydrate) and then used as a 1% inoculum. The carbohydrates are sterilized with a 0.22 micron filter and used at a 1% final concentration. Cell growth is performed in 250 μL of sMRS+cysteine covered with 50 μL of mineral oil in a Bioscreen 100-well Honeycomb plate. […] The plate reader is operated in discontinuous mode, with absorbance readings performed in 30-minute intervals, and preceded by 30-second shaking intervals at maximum speed. Controls consist of inoculated medium lacking carbohydrate. […] All three plates include a positive control (glucose) and negative control (no carbohydrate). The OD600 data for each carbohydrate is corrected by subtracting the OD600 of the basal media (sMRS)+cysteine from the sample plate for each probiotic. Maximum OD is determined by inspection of the corrected growth data. OD is determined by subtracting the initial corrected OD (time point 0) from the maximum corrected OD. Samples are grown in biologically independent triplicates and the resulting growth kinetic data are expressed as the mean of these replicates. For the growth curve plots, OD600 vs. time is first plotted for the bacteria grown on medium lacking carbohydrate (sMRS). For all other carbohydrates, the OD600 data is corrected by subtracting the OD600 of sMRS.

B. infantis M-63 = test: Bacterial growth assay (OD600); format: cell-based, Bifidobacterium infantis; details: 1% carbohydrate in sMRS+cysteine
Description: as §1

Compound: CC(=O)N[C@H]1[C@H](O[C@H]2[C@@H](O)[C@@H](CO)O[C@@H](O[C@H]3[C@H](O)[C@@H](O)C(O)O[C@@H]3CO)[C@@H]2O)O[C@H](CO)[C@@H](O[C@@H]2O[C@H](CO)[C@H](O)[C@H](O)[C@H]2O)[C@@H]1O (mixture of isomers) [LNnT, Lacto-N-neotetraose]
- HT-29 cell proliferation (HT-29 cells; Example 47: 100, 200, 400 mg/L, 48 or 72 hours): reduced HT-29 cell proliferation; also recorded: inhibits intestinal cell proliferation
- HT-29 cell proliferation (HT-29 cells; Example 48: LNnT or 2′FL 20, 200, 2000 mg/L, 6′SL 40, 400, 72 hours): capable of reducing cell proliferation at higher doses; also recorded: inhibits intestinal cell proliferation in immature epithelial cells
- cell resistance (transepithelial resistance), barrier function (Caco-2 cells): can have a positive effect on cell resistance; also recorded: can positively affect barrier function of more mature cells
- fermentation rate (infant fecal bacteria): about 4,488 μg/g of dry matter/hour
- acetate production (infant fecal bacteria; 3 and 6 h): produce similar amounts of acetate
- acetate production (infant fecal bacteria; 6 h): less acetate than GOS
- acetate production, formula fed versus breast fed infants (infant fecal bacteria; 12 h): greater
- lactate production (infant fecal bacteria; 12 h): greater (P<0.0001) compared to gum Arabic
- total SCFA production, formula fed versus breast fed infants (infant fecal bacteria; after 3, 6 and 12 h of fermentation): greater (P=0.01) fermentation by formula fed infants
- pH change from baseline (infant fecal bacteria; at 3, 6 and 12 h after inoculation): greatest
- fermentability by infant fecal bacteria (infant fecal bacteria; overall): highly fermentable; also recorded: readily fermented
- propionate production (infant fecal bacteria; overall): greater (P<0.0001) propionate production than gum Arabic
- relative rate of fermentation (infant fecal bacteria; overall): fermented more rapidly than 6′SL; also recorded: fermentation rates similar to GOS
- lactate production (infant fecal bacteria; time not stated (between the 3 h and 12 h statements)): greater (P<0.0001)
- lactate accumulation (infant fecal bacteria; up to 12 h): significant amounts of lactate
- growth / ability to ferment (OD600) (B. infantis ATCC 15697): grow well
- growth / ability to ferment (OD600) (B. infantis M-63): grow well
